According to patent US20170291905A1, “ARGININE […] INHIBITORS AND USES THEREOF” (Epizyme, Inc., priority 2014, published 2017):

Each molecule was assayed against T1, PRMT1 (Homo sapiens, UniProt Q99873) (assay: RKO methylation assay, In Cell Western (ICW) for mono-methyl arginine and DNA content). Conditions: RKO cells, 72 hours, mono-methyl arginine signal normalised to DRAQ5, percent activation.
T1 construct: host or cells: RKO cells
Type: cell-based
Procedure, shortened: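 RKO cells treated with compound for 72 h at 37 °C, then methanol-fixed and In Cell Western stained for mono-methyl arginine (800 nm) with DRAQ5 DNA stain (700 nm). Per-well signal ratio normalised between DMSO and 20 μM reference-compound controls as percent activation; EC30 from triplicate nine-point three-fold dilutions.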

T1 sequence (Q99873 whole entry): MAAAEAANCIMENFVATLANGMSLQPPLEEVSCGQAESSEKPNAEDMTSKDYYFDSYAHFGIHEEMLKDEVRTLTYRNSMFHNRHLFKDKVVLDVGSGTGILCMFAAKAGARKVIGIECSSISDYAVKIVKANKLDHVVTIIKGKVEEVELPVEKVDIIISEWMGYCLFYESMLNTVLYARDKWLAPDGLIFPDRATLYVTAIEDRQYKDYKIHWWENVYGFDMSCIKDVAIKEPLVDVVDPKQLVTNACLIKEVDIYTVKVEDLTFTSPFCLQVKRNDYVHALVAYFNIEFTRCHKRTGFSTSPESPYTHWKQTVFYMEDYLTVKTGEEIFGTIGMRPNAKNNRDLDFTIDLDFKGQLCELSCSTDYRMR

Row | SMILES | PRMT1 RGG ICW EC30 [nM]
1 | CC[C@H]1CC[C@@H](c2n[nH]cc2CN(C)CCNC)CC1 [compound 1] | 83.01
2 | CCOCCOCC1(COCCOCC)CCC(c2n[nH]cc2CN(C)CCNC)CC1 [compound 39, N1-((3-(4,4-bis((2-ethoxyethoxy)methyl)cyclohexyl)-1H-pyrazol-4-yl)methyl)-N1,N2-dimethylethane-1,2-diamine] | 1388
3 | CNCCN(C)Cc1c[nH]nc1C1CCC(COCCC2CCOCC2)(COCCC2CCOCC2)CC1 [compound 40] | 458.5
4 | CNCCN(C)Cc1c[nH]nc1C1CCC(COCC2CC2)(COCC2CC2)CC1 [compound 41, N1-((3-(4,4-bis((cyclopropylmethoxy)methyl)cyclohexyl)-1H-pyrazol-4-yl)methyl)-N1,N2-dimethylethane-1,2-diamine] | 67.48
5 | CN(C)CCN(C)Cc1c[nH]nc1[C@H]1CC[C@@]2(CC1)CC(C)(C)CO2 [compound 42, N1-((3-((5S,8S)-3,3-dimethyl-1-oxaspiro[4.5]decan-8-yl)-1H-pyrazol-4-yl)methyl)-N1,N2,N2-trimethylethane-1,2-diamine] | 51.41
6 | CN(C)CCN(C)Cc1c[nH]nc1[C@H]1CC[C@]2(CC1)CC(C)(C)CO2 [compound 43, N1-((3-((5r,8r)-3,3-dimethyl-1-oxaspiro[4.5]decan-8-yl)-1H-pyrazol-4-yl)methyl)-N1,N2,N2-trimethylethane-1,2-diamine] | 622.8
7 | CNCCN(C)Cc1c[nH]nc1C1CCC(CO)(CO)CC1 [compound 44, (4-(4-((methyl(2-(methylamino)ethyl)amino)methyl)-1H-pyrazol-3-yl)cyclohexane-1,1-diyl)dimethanol] | >5000
8 | CNCCN(C)Cc1c[nH]nc1C1=CCC2(CC1)CC(C)(C)CO2 (centres unmarked) [compound 46, N1-((3-(3,3-dimethyl-1-oxaspiro[4.5]dec-7-en-8-yl)-1H-pyrazol-4-yl)methyl)-N1,N2-dimethylethane-1,2-diamine] | 185.1
9 | CCC1(CC)C[C@]2(CC[C@H](c3n[nH]cc3CN(C)CCNC)CC2)NC1=O [compound 47, (5s,8s)-3,3-diethyl-8-(4-((methyl(2-(methylamino)ethyl)amino)methyl)-1H-pyrazol-3-yl)-1-azaspiro[4.5]decan-2-one] | 367.1
10 | CCC1(CC)C[C@]2(CC[C@@H](c3n[nH]cc3CN(C)CCNC)CC2)NC1=O [compound 48, (5r,8r)-3,3-diethyl-8-(4-((methyl(2-(methylamino)ethyl)amino)methyl)-1H-pyrazol-3-yl)-1-azaspiro[4.5]decan-2-one] | >5000
11 | CNCCN(C)Cc1ccnn1[C@H]1CC[C@@]2(CC1)CC(C)(C)CO2 [compound 49, N1-((1-((5s,8s)-3,3-dimethyl-1-oxaspiro[4.5]decan-8-yl)-1H-pyrazol-5-yl)methyl)-N1,N2-dimethylethane-1,2-diamine] | 111.3
